Experimental data as given in US9174974B2, “Macrocyclic factor VIIa inhibitors” (BRISTOL-MYERS SQUIBB COMPANY, priority 2012, dated 2015).

Legend:
[1] = target: human FVIIa (Homo sapiens (Human), UniProt P08709); test: FVIIa Ki (37° C.), FVIIa-Xase assay; format: biochemical; conditions: for Ki: read-out: FVIIa Ki, nM 37° C.; for Ki(HK1)/Ki(FVIIa): selectivity ratio, tissue kallikrein (HK1) vs FVIIa
[2] = target: tissue kallikrein (HK1) (Homo sapiens (Human), UniProt P06870); test: Tissue kallikrein-1 (HK1) Ki, fluorogenic substrate assay; format: biochemical; conditions: 37° C.
tissue kallikrein (HK1), sequence (P06870 25-262): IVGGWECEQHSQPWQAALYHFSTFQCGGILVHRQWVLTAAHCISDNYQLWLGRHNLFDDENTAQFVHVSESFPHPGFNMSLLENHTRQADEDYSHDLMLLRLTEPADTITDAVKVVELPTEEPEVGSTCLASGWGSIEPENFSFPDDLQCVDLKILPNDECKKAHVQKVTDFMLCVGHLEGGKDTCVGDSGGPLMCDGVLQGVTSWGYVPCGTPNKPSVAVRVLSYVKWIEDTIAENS

human FVIIa, sequence (P08709 61-212): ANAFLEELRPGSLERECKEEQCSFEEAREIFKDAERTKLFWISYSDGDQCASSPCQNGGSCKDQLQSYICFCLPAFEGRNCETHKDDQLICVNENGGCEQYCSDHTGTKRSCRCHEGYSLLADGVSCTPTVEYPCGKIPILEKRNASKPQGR
human FVIIa, sequence (P08709 213-466): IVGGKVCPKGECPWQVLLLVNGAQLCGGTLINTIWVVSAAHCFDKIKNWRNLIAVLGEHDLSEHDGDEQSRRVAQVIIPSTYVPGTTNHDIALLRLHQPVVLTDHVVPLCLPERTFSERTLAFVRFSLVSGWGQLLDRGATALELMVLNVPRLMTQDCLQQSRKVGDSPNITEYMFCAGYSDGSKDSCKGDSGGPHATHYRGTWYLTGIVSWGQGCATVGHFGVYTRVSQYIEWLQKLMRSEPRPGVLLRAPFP
human FVIIa, sequence (P13726 33-295 partner): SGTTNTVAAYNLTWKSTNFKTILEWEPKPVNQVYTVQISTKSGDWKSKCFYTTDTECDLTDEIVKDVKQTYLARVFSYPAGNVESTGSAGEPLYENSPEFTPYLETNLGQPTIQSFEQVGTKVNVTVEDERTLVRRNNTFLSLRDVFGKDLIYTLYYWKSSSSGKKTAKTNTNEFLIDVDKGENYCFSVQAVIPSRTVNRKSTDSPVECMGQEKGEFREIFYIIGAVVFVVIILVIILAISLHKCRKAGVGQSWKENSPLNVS

Structure (SMILES) | Ki [1] | Ki(HK1)/Ki(FVIIa) [1] | Ki [2]
COCCCOc1c(F)cc2cc1CN(C)C(=O)[C@H](Nc1ccc3c(N)nccc3c1)c1ccc(c(C)c1)[C@@H](C)COC(=O)N2.O=C(O)C(F)(F)F [Example 28, (2R,15R)-2-[(1-Aminoisoquinolin-6-yl)amino]-8-fluoro-7-(3-methoxypropoxy)-4,15,20-trimethyl-13-oxa-4,11-diazatricyclo[14.2.2.1^6,10]henicosa-1(18),6,8,10 (21),16,19-hexaene-3,12-dione; trifluoroacetic acid] | 0.2 nM | 1450 | 290 nM
Cc1cc2cc(C)c1C(F)(F)COC(=O)Nc1ccc(S(=O)(=O)C3CC3)c(c1)CN(C)C(=O)[C@@H]2Nc1ccc2c(N)nccc2c1.O=C(O)C(F)(F)F [Example 5, (2R)-2-[(1-Aminoisoquinolin-6-yl)amino]-7-(cyclopropanesulfonyl)-15,15-difluoro-4,17,20-trimethyl-13-oxa-4,11-diazatricyclo[14.2.2.1^6,10]henicosa-1(18),6,8,10 (21),16,19-hexaene-3,12-dione; trifluoroacetic acid] | 2 nM | 145 | 290 nM
Cc1cc2ccc1[C@@H](C(F)F)COC(=O)Nc1ccc(S(=O)(=O)C3CC3)c(c1)CN(C)C(=O)[C@@H]2Nc1ccc2c(N)nccc2c1.O=C(O)C(F)(F)F [Example 16, (2R,15R)-2-[(1-Aminoisoquinolin-6-yl)amino]-7-(cyclopropanesulfonyl)-15-(difluoromethyl)-4,17-dimethyl-13-oxa-4,11-diazatricyclo[14.2.2.1^6,10]henicosa-1(18),6,8,10 (21),16,19-hexaene-3,12-dione; trifluoroacetic acid] | 0.5 nM | 360 | 180 nM
Cc1cc2ccc1[C@@H](C)COC(=O)Nc1ccc(C(=O)N3CCC3)c(c1)CN(C)C(=O)[C@@H]2Nc1ccc2c(N)nccc2c1.O=C(O)C(F)(F)F [Example 7, (2R,15R)-2-[(1-Aminoisoquinolin-6-yl)amino]-7-(azetidine-1-carbonyl)-4,15,17-trimethyl-13-oxa-4,11-diazatricyclo[14.2.2.16,10]henicosa-1(18),6,8,10 (21),16,19-hexaene-3,12-dione; trifluoroacetic acid] | 1.2 nM | 525 | 630 nM
Cc1cc2ccc1[C@@H](C)COC(=O)Nc1cc(F)c(OC[C@H](O)C3CC3)c(c1)CN(C)C(=O)[C@@H]2Nc1ccc2c(N)nccc2c1.O=C(O)C(F)(F)F (stereo in doubt) [Example 21, (2R,15R)-2-[(1-Aminoisoquinolin-6-yl)amino]-7-[(2S)-2-cyclopropyl-2-hydroxyethoxy]-8-fluoro-4,15,20-trimethyl-13-oxa-4,11-diazatricyclo[14.2.2.16,10]henicosa-1(18),6,8,10 (21),16,19-hexaene-3,12-dione; trifluoroacetic acid] | 0.34 nM | 1618 | 550 nM
Cc1cc2ccc1[C@@H](C)COC(=O)Nc1cc(F)c(S(=O)(=O)C(C)C)c(c1)CN(C)C(=O)[C@@H]2Nc1cc(F)c2c(N)nccc2c1.O=C(O)C(F)(F)F [Example 20, (2R,15R)-2-[(1-Amino-8-fluoroisoquinolin-6-yl)amino]-8-fluoro-4,15,17-trimethyl-7-(propane-2-sulfonyl)-13-oxa-4,11-diazatricyclo[14.2.2.1^6,10]henicosa-1(18),6,8,10 (21),16,19-hexaene-3,12-dione; trifluoroacetic acid] | 0.36 nM | 333 | 120 nM
CC(C)S(=O)(=O)c1ccc2cc1CN(C)C(=O)[C@H](Nc1cc(F)c3c(N)nccc3c1)c1ccc(cc1)CCOC(=O)N2 [Comparator 1, reference compound] | 38 nM | 87 | 3330 nM
Cc1cc2ccc1[C@@H](C)COC(=O)Nc1cc(F)c(O[C@H]3CCOC3)c(c1)CN(C)C(=O)C2Nc1ccc2c(N)nccc2c1.O=C(O)C(F)(F)F (stereo partly drawn) [Example 39, (15R)-2-[(1-Aminoisoquinolin-6-yl)amino]-8-fluoro-4,15,20-trimethyl-7-[(3S)-oxolan-3-yloxy]-13-oxa-4,11-diazatricyclo[14.2.2.1^6,10]henicosa-1(18),6,8,10 (21),16,19-hexaene-3,12-dione; trifluoroacetic acid] | 0.02 nM | 5000 | 100 nM

More lines, now with the values ahead:

Ki [1] | Ki(HK1)/Ki(FVIIa) [1] | Ki [2] | Structure (SMILES)
0.9 nM | 356 | 320 nM | Cc1cc2ccc1[C@@H](C)COC(=O)Nc1ccc([C@@H](CC(F)F)C(=O)O)c(c1)CN(C)C(=O)[C@@H]2Nc1ccc2c(N)ncc(F)c2c1.O=C(O)C(F)(F)F [Example 10, (2R)-2-[(2R,15R)-2-[(1-Amino-4-fluoroisoquinolin-6-yl)amino]-4,15,17-trimethyl-3,12-dioxo-13-oxa-4,11-diazatricyclo[14.2.2.1^6,10]henicosa-1(18),6,8,10 (21),16,19-hexaen-7-yl]-4,4-difluorobutanoic acid; trifluoroacetic acid]
0.14 nM | 357 | 50 nM | Cc1cc2ccc1[C@@H](C)COC(=O)Nc1cc(F)c(O[C@@H](C)CO)c(c1)CN(C)C(=O)[C@@H]2Nc1ccc2c(N)nccc2c1.O=C(O)C(F)(F)F [Example 33, (2R,15R)-2-[(1-Aminoisoquinolin-6-yl)amino]-8-fluoro-7-{[(2S)-1-hydroxypropan-2-yl]oxy}-4,15,20-trimethyl-13-oxa-4,11-diazatricyclo[14.2.2.16,10]henicosa-1(18),6,8,10 (21),16,19-hexaene-3,12-dione; trifluoroacetic acid]
2.3 nM | 117 | 270 nM | CCS(=O)(=O)c1ccc2cc1CN(C)C(=O)[C@H](Nc1ccc3c(N)ncc(F)c3c1)c1ccc(c(C)c1)[C@@H](C)COC(=O)N2.O=C(O)C(F)(F)F [Example 3, (2R,15R)-2-[(1-Amino-4-fluoroisoquinolin-6-yl)amino]-7-(ethanesulfonyl)-4,15,17-trimethyl-13-oxa-4,11-diazatricyclo[14.2.2.1^6,10]henicosa-1(18),6,8,10 (21),16,19-hexaene-3,12-dione; trifluoroacetic acid]
0.46 nM | 870 | 400 nM | Cc1cc2ccc1[C@@H](C)COC(=O)Nc1cc(F)c(OC[C@H](C)O)c(c1)CN(C)C(=O)[C@@H]2Nc1ccc2c(N)nccc2c1.O=C(O)C(F)(F)F [Example 17, (2R,15R)-2-[(1-Aminoisoquinolin-6-yl)amino]-8-fluoro-7-[(2S)-2-hydroxypropoxy]-4,15,20-trimethyl-13-oxa-4,11-diazatricyclo[14.2.2.1^6,10]henicosa-1(18),6,8,10 (21),16,19-hexaene-3,12-dione; trifluoroacetic acid]
0.15 nM | 273 | 41 nM | Cc1cc2ccc1[C@@H](C)COC(=O)Nc1cc(F)c(OC(CF)CF)c(c1)CN(C)C(=O)[C@@H]2Nc1ccc2c(N)nccc2c1.O=C(O)C(F)(F)F [Example 32, (2R,15R)-2-[(1-Aminoisoquinolin-6-yl)amino]-7-[(1,3-difluoropropan-2-yl)oxy]-8-fluoro-4,15,20-trimethyl-13-oxa-4,11-diazatricyclo[14.2.2.1^6,10]henicosa-1(18),6,8,10 (21),16,19-hexaene-3,12-dione; trifluoroacetic acid]
